# Read-outs that look alike come from different tables or passages of the source.
# How the values were obtained:
# obese subjects = settings: cited from earlier work
# [1] = test system: STZ-induced diabetic rat model; test: Blood glucose response after oral gavage in the STZ-induced diabetic rat model; format: in vivo, Sprague Dawley rats; settings: STZ-induced diabetic rats
# Description: To examine the in vivo efficacy of the B12-insulin conjugate, blood from the STZ-induced diabetic rat model was sampled by means of a jugular catheter prior to and subsequent to oral administration of the B12-insulin conjugate and compared to the blood glucose response following administration of an equimolar solution of free insulin (FIG. 8A and B).
# Animals. Male Sprague Dawley rats (323±36; ±SD; n=12) were purchased pre-catheterised (Jugular vein) from Charles River Laboratories (Wilmington, Mass.), acclimatised for three days and then rendered insulin-deficient via infusion of streptozotocin (STZ; 60 mg/kg body weight) dissolved in citrate buffer and used within 15 min of preparation. Blood glucose concentration was assessed over four days to ensure fasting levels of greater than 14 mmol/L (>250 mg/dl) were reached. Animals were housed individually and maintained on a 12-hr light-dark (0600-1800 h) cycle with free access to food (standard laboratory chow; Scotts' Distributing, Inc) and water. Maintenance of animals and experimental protocols were conducted in accordance with federal regulations and approved by the Syracuse University Institutional Animal Care and Use Committee (Protocol Number SU 09-102)
# Animal experimental design. On the day of experimentation, animals were fasted for 4 hours prior to the sampling of blood (50 μl) and the B12-insulin compound (100 nm/ml) was subsequently administered via oral gavage (1 ml). Blood was then sampled at 30-, 60-, 90-, 120-, 150-, 180-, 210-, 240-, 270- and 300-min after the administration of the conjugate for the calculation of area under the blood glucose curve (YSI 2300 STAT PLUS, YSI Incorporated, Yellow Springs, Ohio). Two control groups were used in this set of experiments; the first received a molar-equivalent concentration (100 nm) of free insulin (1 ml) while the second control group received the same quantity of the B12-insulin conjugate as the experimental group, however the conjugate was dissolved in 10^5-fold excess B12.
# [2] = Melting circular dichroism studies (222 nm); format: physicochemical; settings: 50 mM HEPES
# Method: Melting circular dichroism (CD) studies. Circular dichroism (CD) was performed on an Aviv model 202 spectrometer set at 222 nm with a 1 mL Quartz cuvette. All samples were prepared in 50 mM HEPES buffer (pH 9.7) with 25 mM carbonate and 10 mM EDTA and heated from 25 to 80° C. in 1° increments then cooled from 80 to 25° C. in the same increment. Sample concentrations ranged from 1.00 μM to 1.35 μM. […] All results were duplicated per batch and run for every batch prior to in vivo testing.
# Intrinsic Factor = test: Spectrophotometric Intrinsic Factor in vitro binding studies; settings: 50 mM HEPES
# Method: Intrinsic Factor binding studies. Intrinsic Factor (10 mg, […]) was dissolved in 1 mL dH2O. A 50 μL aliquot of B12-insulin was added to 950 μL of 50 mM HEPES buffer. Baseline was run against HEPES buffer and the first scan of B12-insulin was taken without Intrinsic Factor. A 5 μL aliquot of Intrinsic Factor was added to the B12-insulin, mixed and a second scan was taken. This procedure was repeated for five additions of Intrinsic Factor.
# [3] = humans; cited from earlier work
# humans [4] = settings: cited from earlier work
# humans [5] = settings: cited from earlier work; for decrease in caloric intake: total dose 2 nmol/m^2 body-surface area, 90-min infusion
# [6] = in vivo; cited from earlier work
# [7] = oral-enteric route; cited from earlier work
# [8] = native insulin, Tietze et al. 1953; cited from earlier work
compound,measurement,setting,value
CC(C)CC(N(C)C)C1(c2ccc(Cl)cc2)CCC1 (stereo not drawn) [sibutramine],mean weight loss,obese subjects,10%
same,reduction of acute caloric intake,obese subjects,16%
B12-insulin conjugate: Bovine insulin conjugated using CDI at B strand lysine29 to the 5′-hydroxyl group of B12; carbamate linked conjugate,reduction of blood glucose levels compared with free insulin,[1]; oral administration,more effective than free insulin
same,time of nadir in the blood glucose response,[1]; oral administration,4 h
same,greater decrease in the area under the blood glucose curve compared to free insulin,"[1]; oral gavage 1 ml of 100 nm/ml, 300 min, vs equimolar free insulin, p=0.056",4.7 fold
same,melting temperature (circular dichroism),[2],~65 °C
same,melting temperature (circular dichroism),[2]; listed as B12-insulin,55 °C
same,binding to Intrinsic Factor,Intrinsic Factor,recognizing the B12-insulin conjugate
same,binding to Intrinsic Factor,Intrinsic Factor; listed as insulin-B12 conjugate,successful binding
Cyanocobalamin [B12],uptake capacity,[3],1-2 μg per dosage
"GLP-1(7-36)amide: Glucagon-like peptide-1 (7-36) amide, endogenous incretin peptide",average acute reduction of food intake,"humans [4]; infusion, meta-analysis",11.7%
same,weight loss,"humans [4]; prandial subcutaneous injections for 5 days, obese but otherwise healthy subjects",0.55 kg
"PYY3-36: truncated form of Peptide YY, endogenous appetite suppressing peptide",reduction in calorie intake,"humans [5]; lean humans, i.v. infusion 0.8 pmol/kg/min, free-choice buffet meal 2 hours after end of infusion",approximately 36%
same,decrease in caloric intake,humans [5]; lean subjects,31%
same,decrease in caloric intake,humans [5]; obese subjects,30%
same,time for plasma level to return to baseline after end of infusion,[6],≤ 30 min
insulin,bioavailability,[7],about 5%
same,half-life,[8],10 min

# — patent US8883723B2, “Conjugate of insulin and vitamin B12 for oral delivery” (Syracuse University, priority 2007, dated 2014)
